Experimental data published in patent US20260159520A1, “HETEROBIFUNCTIONAL COMPOUNDS AND METHODS OF TREATING DISEASE” (Halda Therapeutics OpCo, Inc., priority 2022, published 2026).
pKd: −log10 of the molar value.

How the values were obtained:
CDK9 = molecular target: T1, CDK9 (Homo sapiens, UniProt P50750); assay: KdELECT binding assay, CDK9; conditions: CDK9, Table 7
T1 construct: made in house; host or cells: E. coli BL21-derived host (T7 phage) or HEK-293 ('BEK-293' [sic])
Description: Compounds were tested using a KdELECT. Kinase-tagged T7 phage strains were prepared in an E. coli host derived from the BL21 strain. E. coli were grown to log-phase and infected with T7 phage and incubated with shaking at 32° C. until lysis. The lysates were centrifuged and filtered to remove cell debris. The remaining kinases were produced in BEK-293 cells and subsequently tagged with DNA for qPCR detection. Streptavidin-coated magnetic beads were treated with biotinylated small molecule ligands for 30 minutes at room temperature to generate affinity resins for kinase assays. The liganded beads were blocked with excess biotin and washed with blocking buffer (SeaBlock (Pierce), 1% BSA, 0.05% Tween 20, 1 mM DTT) to remove unbound ligand and to reduce non-specific binding. Binding reactions were assembled by combining kinases, liganded affinity beads, and test compounds in 1× binding buffer (20% SeaBlock, 0.17×PBS, 0.05% Tween 20, 6 mM DTT). Test compounds were prepared as 111× stocks in 100% DMSO. Kd values were determined using an 11-point 3-fold compound dilution series with three DMSO control points. All compounds for Kd measurements are distributed by acoustic transfer (non-contact dispensing) in 100% DMSO. The compounds were then diluted directly into the assays such that the final concentration of DMSO was 0.9%. All reactions performed in polypropylene 384-well plate. Each was a final volume of 0.02 mL. The assay plates were incubated at room temperature with shaking for 1 hour and the affinity beads were washed with wash buffer (lx PBS, 0.05% Tween 20). The beads were then re-suspended in elution buffer (lx PBS, 0.05% Tween 20, 0.5 μM nonbiotinylated affinity ligand) and incubated at room temperature with shaking for 30 minutes. The kinase concentration in the eluates was measured by qPCR.

[1] = system: T-Rex 293 cell line SC cells lacking increased expression of progesterone receptor isoform B protein; assay: Cellular growth inhibition, T-Rex 293 SC cells without doxycycline; assay type: cell-based; conditions: not exposed to doxycycline, 72 hours, CellTiter-Glo 2.0
Description: (§1) The following types of cells were prepared for this experiment: (i) a T-Rex 293 cell line having increased expression of progesterone receptor isoform B protein due to exposure to doxycycline and (ii) a T-Rex 293 cell line lacking increased expression of progesterone receptor isoform B protein. Ability of the test compounds to inhibit proliferation of the foregoing cell types was evaluated according to the procedures set forth below.
(§2) The doxycycline-inducible progesterone receptor isoform B protein expressing cell line was established using the following protocol: T-Rex 293 cells were purchased from Invitrogen (Cat #R71007) and transfected using Lipofectamine 2000 with the wild-type progesterone receptor B protein sequence cloned into the pcDNA4/TO vector. Transfected cells were selected using 400 μg/mL Zeocin (Invitrogen Cat #R25001). Following selection, single clones were raised and maintained in Dulbecco's Modified Eagle Medium (DMEM) supplemented with 10% w/w Tetracycline-free fetal bovine serum (FBS) and 250 μg/mL Zeocin. Clones were analyzed for expression of progesterone receptor isoform B protein in the presence and absence of 10 ng/mL doxycycline (Sigma Cat #D9891), and a single doxycycline-inducible clone (hereinafter “SC”) was selected for use in downstream assays.
(§3) The SC cells were seeded on poly-D-lysine coated, black clear-bottom 384-well plates at 2500/well, in 25 μL Phenol Red Free Dulbecco's Modified Eagle Medium (DMEM) supplemented with 10% w/w charcoal-dextran treated fetal bovine serum (FBS) and 1% w/w pen-strep, with or without 10 ng/mL doxycycline. Pen-Strep is a commercially available mixture of penicillin G and streptomycin, which is used in mammalian cell culture media to prevent bacterial contamination. Phenol Red Free Dulbecco's Modified Eagle Medium (DMEM) supplemented with 10% w/w charcoal-dextran treated fetal bovine serum (FBS) and 1% w/w pen-strep, with or without 10 ng/mL doxycycline is herein referred to as Treatment Medium. Following seeding of cells in the plates, the plates were spun at 300×g for 30 seconds, then equilibrated to room temperature for 30 minutes, and then deposited in a humidified tissue culture incubator maintained at 37° C. with 5% CO2.
(§4) At 24 hours after seeding of the cells, dilutions of test compound were prepared in DMSO and dissolved in Treatment Medium, to achieve a final DMSO concentration of 0.5% w/w, thereby providing the Test Compound Solution. A 25 μL aliquot of the Test Compound Solution was added to cells in the well plates. An equal volume of a solution containing DMSO and Treatment Medium was used as a negative control. Following treatment of cells with Test Compound Solution or said equal volume of a solution containing DMSO and Treatment Medium, the plates were spun at 300×g for 30 seconds, and then left in an incubator for 72 hours.
(§5) At the end of the treatment duration, cell viability was quantified with CellTiter-Glo 2.0 reagent (Promega Cat #G9243). For this purpose, plates were equilibrated to room temperature for 30 minutes, and then 25 μL of CellTiter-Glo 2.0 reagent was added to cells in the plate wells. Plates were then agitated on a shaker for two minutes at 500 rpm and subsequently incubated at room temperature for 10 minutes. Following incubation, the plates were spun at 3000×g for 30 seconds, then sealed with an optical adhesive cover, and luminescence readings were measured with an EnVision Plate Reader (Perkin Elmer).
(§6) Data was normalized using zero luminescence for baseline. A four-parameter non-linear regression curve fit was applied to dose-response data in GraphPad Prism data analysis software to determine the half-maximal growth inhibitory concentration (GI50) for each test compound.

[2] = system: T-Rex 293 cell line SC cells having increased expression of progesterone receptor isoform B protein; assay: Cellular growth inhibition, T-Rex 293 SC cells with doxycycline (increased progesterone receptor isoform B expression); assay type: cell-based; conditions: with 10 ng/mL doxycycline (increased progesterone receptor isoform B), 72 hours, CellTiter-Glo 2.0
Description: as §1, §2, §3, §4, §5, §6

T1 sequence (P50750 whole entry): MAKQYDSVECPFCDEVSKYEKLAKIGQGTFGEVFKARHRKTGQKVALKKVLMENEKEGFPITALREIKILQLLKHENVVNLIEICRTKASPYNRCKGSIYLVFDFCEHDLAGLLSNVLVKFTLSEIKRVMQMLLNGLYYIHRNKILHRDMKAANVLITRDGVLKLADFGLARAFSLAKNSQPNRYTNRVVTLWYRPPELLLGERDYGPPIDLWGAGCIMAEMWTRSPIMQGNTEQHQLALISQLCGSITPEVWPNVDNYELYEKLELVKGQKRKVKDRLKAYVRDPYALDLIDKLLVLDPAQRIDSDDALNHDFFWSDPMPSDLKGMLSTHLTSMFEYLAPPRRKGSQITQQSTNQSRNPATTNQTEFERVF

SMILES	pKd (CDK9)	GI50 [1] [nM]	GI50 [2] [nM]
CCc1cnn2c(NCc3ccc(OCCN(C)c4ncc(C(=O)N[C@H]5C(C)(C)[C@H](Oc6ccc(C#N)c(Cl)c6)C5(C)C)cn4)nc3)cc(N3CCCC[C@H]3CCO)nc12 [Compound I-1]	6.30 to 7.30	–	–
CCc1cnn2c(NCc3ccc(OCCOCCOCCOCCOCCN(C)c4ncc(C(=O)N[C@H]5C(C)(C)[C@H](Oc6ccc(C#N)c(Cl)c6)C5(C)C)cn4)nc3)cc(N3CCCC[C@H]3CCO)nc12 [Compound I-3]	6.30 to 7.30	< 500	< 500
CCc1cnn2c(NCc3ccc(=O)n(CCOCCOCCOCCOCCOCCOCCN(C)c4ncc(C(=O)N[C@H]5C(C)(C)[C@H](Oc6ccc(C#N)c(Cl)c6)C5(C)C)cn4)c3)cc(N3CCCC[C@H]3CCO)nc12 [Compound I-4, N-((1r,3r)-3-(3-chloro-4-cyanophenoxy)-2,2,4,4-tetramethylcyclobutyl)-2-((20-(5-(((3-ethyl-5-((S)-2-(2-hydroxyethyl)piperidin-1-yl)pyrazolo[1,5-a]pyrimidin-7-yl)amino)methyl)-2-oxopyridin-1(2H)-yl)-3,6,9,12,15,18-hexaoxaicosyl)(methyl)amino)pyrimidine-5-carboxamide]	–	< 500	< 500
CCc1cnn2c(NCc3ccc(OCCOCCOCCOCCOCCOCCOCCN(C)c4ncc(C(=O)N[C@H]5C(C)(C)[C@H](Oc6ccc(C#N)c(Cl)c6)C5(C)C)cn4)nc3)cc(N3CCCC[C@H]3CCO)nc12 [Compound I-5]	–	500 to 1500	< 500
CCc1cnn2c(NCc3ccc(OCCOC4CCN(c5ncc(C(=O)N[C@H]6C(C)(C)[C@H](Oc7ccc(C#N)c(Cl)c7)C6(C)C)cn5)CC4)nc3)cc(N3CCCC[C@H]3CCO)nc12 [Compound I-7, N-((1r,3r)-3-(3-chloro-4-cyanophenoxy)-2,2,4,4-tetramethylcyclobutyl)-2-(4-(2-((5-(((3-ethyl-5-((S)-2-(2-hydroxyethyl)piperidin-1-yl)pyrazolo[1,5-a]pyrimidin-7-yl)amino)methyl)pyridin-2-yl)oxy)ethoxy)piperidin-1-yl)pyrimidine-5-carboxamide]	5.60 to 6.30	< 500	< 500
CCc1cnn2c(NCc3ccc(OCCOCCOCCOC4CCN(c5ncc(C(=O)N[C@H]6C(C)(C)[C@H](Oc7ccc(C#N)c(Cl)c7)C6(C)C)cn5)CC4)nc3)cc(N3CCCC[C@H]3CCO)nc12 [Compound I-8]	6.30 to 7.30	< 500	< 500
CCc1cnn2c(NCc3ccc(OCCOCCOCCOCCOCCOC4CCN(c5ncc(C(=O)N[C@H]6C(C)(C)[C@H](Oc7ccc(C#N)c(Cl)c7)C6(C)C)cn5)CC4)nc3)cc(N3CCCC[C@H]3CCO)nc12 [Compound I-9]	5.60 to 6.30	–	–
CC1(C)[C@H](NC(=O)c2cnc(N3CCC(OCCNS(=O)(=O)c4ccc(Nc5ncc(Br)c(Nc6cccc(F)c6C(N)=O)n5)cc4)CC3)nc2)C(C)(C)[C@H]1Oc1ccc(C#N)c(Cl)c1 [Compound I-13, 2-(4-(2-((4-((5-bromo-4-((2-carbamoyl-3-fluorophenyl)amino)pyrimidin-2-yl)amino)phenyl)sulfonamido)ethoxy)piperidin-1-yl)-N-((1 r,3r)-3-(3-chloro-4-cyanophenoxy)-2,2,4,4-tetramethylcyclobutyl)pyrimidine-5-carboxamide]	< 5.60	> 3000	> 3000
CCc1cnn2c(NCc3ccc(OCCCCOCCOC4CCN(c5ncc(C(=O)N[C@H]6C(C)(C)[C@H](Oc7ccc(C#N)c(Cl)c7)C6(C)C)cn5)CC4)nc3)cc(N3CCCC[C@H]3CCO)nc12 [Compound I-34]	5.60 to 6.30	–	–
CCc1cnn2c(NCc3ccc(OCCN4CCN(CC5CCN(c6ncc(C(=O)N[C@H]7C(C)(C)[C@H](Oc8ccc(C#N)c(Cl)c8)C7(C)C)cn6)CC5)CC4)nc3)cc(N3CCCC[C@H]3CCO)nc12 [Compound I-41]	6.30 to 7.30	< 500	< 500
CCc1cnn2c(NCc3ccc(COCCN4CCN(CC5CCN(c6ncc(C(=O)N[C@H]7C(C)(C)[C@H](Oc8ccc(C#N)c(Cl)c8)C7(C)C)cn6)CC5)CC4)nc3)cc(N3CCCC[C@H]3CCO)nc12 [Compound I-42]	> 7.30	< 500	< 500
CCc1cnn2c(NCc3ccc(OCCOCC4CCN(CC5CCN(c6ncc(C(=O)N[C@H]7C(C)(C)[C@H](Oc8ccc(C#N)c(Cl)c8)C7(C)C)cn6)CC5)CC4)nc3)cc(N3CCCC[C@H]3CCO)nc12 [Compound I-45]	> 7.30	–	–
CCc1cnn2c(NCc3ccc(OCCN4CCN(CC5CCN(c6ncc(C(=O)N[C@H]7C(C)(C)[C@H](Oc8ccc(C#N)c(Cl)c8)C7(C)C)cn6)CC5)CC4)nc3)cc(-c3ccccc3)nc12 [Compound I-47, N-((1r,3r)-3-(3-chloro-4-cyanophenoxy)-2,2,4,4-tetramethylcyclobutyl)-2-(4-((4-(2-((5-(((3-ethyl-5-phenylpyrazolo[1,5-a]pyrimidin-7-yl)amino)methyl)pyridin-2-yl)oxy)ethyl)piperazin-1-yl)methyl)piperidin-1-yl)pyrimidine-5-carboxamide]	< 5.60	–	–
CCc1cnn2c(NCc3ccc(OCCCN4CCN(CC5CCN(c6ccc(C(=O)N[C@H]7C(C)(C)[C@H](Oc8ccc(C#N)c(Cl)c8)C7(C)C)cn6)CC5)CC4)nc3)cc(N3CCCC[C@@H]3CCO)nc12 [Compound I-55, N-((1r,3r)-3-(3-chloro-4-cyanophenoxy)-2,2,4,4-tetramethylcyclobutyl)-6-(4-((4-(3-((5-(((3-ethyl-5-((R)-2-(2-hydroxyethyl)piperidin-1-yl)pyrazolo[1,5-a]pyrimidin-7-yl)amino)methyl)pyridin-2-yl)oxy)propyl)piperazin-1-yl)methyl)piperidin-1-yl)nicotinamide]	–	< 500	< 500
CCc1cnn2c(NCc3ccc(N4CCC(N5CCN(C6CN(c7ncc(C(=O)N[C@H]8C(C)(C)[C@H](Oc9ccc(C#N)c(Cl)c9)C8(C)C)cn7)C6)CC5)CC4)nc3)cc(N3CCCC[C@H]3CCO)nc12 [Compound I-86]	–	< 500	< 500
CCc1cnn2c(NCc3ccc(OCCCN4CCN(CC5CCN(c6ccc(C(=O)N[C@H]7C(C)(C)[C@H](Oc8ccc(C#N)c(Cl)c8)C7(C)C)cc6)CC5)CC4)nc3)cc(N3CCCC[C@@H]3CCO)nc12 [II-1, N-((1r,3r)-3-(3-chloro-4-cyanophenoxy)-2,2,4,4-tetramethylcyclobutyl)-4-(4-((4-(3-((5-(((3-ethyl-5-((R)-2-(2-hydroxyethyl)piperidin-1-yl)pyrazolo[1,5-a]pyrimidin-7-yl)amino)methyl)pyridin-2-yl)oxy)propyl)piperazin-1-yl)methyl)piperidin-1-yl)benzamide]	–	< 500	< 500
